This note sets out measurements from patent US5905074A, “Vitamin D derivative” (Hoffmann-La Roche Inc., priority 1995, dated 1999).

pEC50: −log10 of the molar value.

In one series the test system is HL-60 cells. In words: HL-60 differentiation (NBT reduction, oxidative burst potential). It is filed as cell-based. As to conditions: Homo sapiens, HL-60, 72 h; 3 days; 50% of maximal differentiation achieved with 100-1000 nM calcitriol. On the procedure:
The induction of differentiation of HL-60 cells was assayed by measuring their oxidative burst potential via the reduction of NBT (Nitro-bluetetraolium) according to a modified procedure of E. Pick et al. in J. Reticul.
30,000 cells/90 μl of RPMI/FCS were seeded into flat-bottomed microtiter wells. Immediately after seeding, 10 μl of vitamin D derivatives diluted in complete medium (RPMI/FCS) were added to yield final concentrations between 10^-11 and 10^-6 M (starting from 1 mM stock solutions in ethanol which were stored at -20° and protected from light). After 3 days, the medium was removed with a multichannel pipette and replaced with 100 μl of NBT solution (1 mg/ml in Dulbecco's PBS with 200 nM phorbol myristate acetate (PMA)). Following an incubation of 1 hour at 37° C. the NBT solution was removed and 100 μl of 10% SDS in 0.01N HCl was added. After further incubation at 37° C. for 6 hours (or more), the amount of the reduced NBT was quantified photometrically at 540 nm using an automated plate reader. The mean of 3 wells was calculated.
Values were expressed as percent of maximal differentiation achieved with 100-1000 nM calcitriol in the same experiment.

The target of a further series is T1, human VDR (Homo sapiens, UniProt P11473).
T1 construct: expressed in transfected cells; host or cells: COS cells or CV-1 cells (VDR expressed in pSG5)
T1 sequence (P11473 1-427): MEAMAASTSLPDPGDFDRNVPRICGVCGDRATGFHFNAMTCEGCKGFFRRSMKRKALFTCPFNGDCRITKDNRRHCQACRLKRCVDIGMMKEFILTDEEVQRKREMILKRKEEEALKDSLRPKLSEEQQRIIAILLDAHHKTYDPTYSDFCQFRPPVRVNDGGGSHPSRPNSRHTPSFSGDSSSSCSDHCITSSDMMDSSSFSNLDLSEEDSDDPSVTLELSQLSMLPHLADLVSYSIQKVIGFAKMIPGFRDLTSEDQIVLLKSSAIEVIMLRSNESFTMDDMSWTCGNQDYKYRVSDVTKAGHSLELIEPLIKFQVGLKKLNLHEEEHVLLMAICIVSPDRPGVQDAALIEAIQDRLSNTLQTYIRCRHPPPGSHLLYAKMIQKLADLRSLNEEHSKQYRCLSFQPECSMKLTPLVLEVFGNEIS
As to the kind of experiment: VDR activation (transcription activation assay, luciferase reporter). As to conditions: half-maximal induction of luciferase activity. It is filed as cell-based. The text has this: In order to measure the activation of the vitamin D receptor (VDR) by vitamin D analogs in cells a transcription activation assay was used. COS cells or CV-1 cells were cotransfected with the human VDR (expressed in pSG5) and a reporter gene containing three response elements (VDRE3) from the rat osteocalcine gene, the thymidine kinase basal promoter, and the luciferase reporter gene.
(In a reporter assay the amount or activity of a reporter protein is the signal.)

The nature of series [1]: Calcium liability (tolerance test in mice). As to conditions: mouse, in vivo, sc; daily subcutaneous, 4 consecutive days; dose resulting in zero weight gain during 5 day treatment period; read-out: highest tolerated dose (mice). From the text:
This routine test gives a global picture of calcemic liability. Profound changes in calcium homeostasis strongly affect the weight development of the animals. This parameter was used as a primary test for tolerance.
Mice (25-30 g body weight) received daily subcutaneous administrations of the vitamin D derivative for 4 consecutive days. Body weight was registered just before and at the end of a […] treatment period. The "highest tolerated dose" (HTD) in mice is the dose which results in zero weight gain during this treatment period.

Regarding `C=C1/C(=C\C=C2/CCC[C@]3(C)[C@@H]([C@H](C)CCCC(C)(C)O)CC[C@@H]23)C[C@@H](O)C[C@@H]1O` [Calcitriol, reference compound], in the series on HL-60 cells, the pEC50 (usually the negative decadic logarithm of the EC50, by convention in mol/L) was 8.30.
Consider `C=C1/C(=C\C=C2/CCC[C@]3(C)[C@@H]([C@H](C)CCCC(C)(C)O)CCC[C@@H]23)C[C@@H](O)C[C@@H]1O` [Compound of formula I, (1R,3S)-5-[(Z)-2-[(E)-(4aR,5R,8aR)-5-[(R)-5-Hydroxy-1,5-dimethyl-hexyl]-4a-methyl-octahydro-naphtalen-1-ylidene]-ethylidene]-4-methylene-cyclohexane-1,3-diol], for which the pEC50 is 8.92 on human VDR (COS cells), 10.40 on human VDR (CV-1 cells) and 9.43 in the series on HL-60 cells. Besides, the MTD in series [1] came out at 0.6 µg/kg.
